The NIST ThermoML archive (doi:10.1021/je700260f)
± gives the expanded uncertainty stated by the source.

Conditions: 283.14 K, Liquid, Vibrating tube method

FC(C(F)(F)F)C(F)(F)F [1,1,1,2,3,3,3-heptafluoropropane]
Conditions	mass density [kg/m3]
933 kPa	1452.5 ± 1.5
962 kPa	1452.6 ± 1.5
988 kPa	1452.7 ± 1.5
1029 kPa	1453 ± 1.5
1062 kPa	1453.3 ± 1.5
1091 kPa	1453.4 ± 1.5
1127 kPa	1453.7 ± 1.5
1160 kPa	1453.8 ± 1.5
1193 kPa	1454 ± 1.5
1227 kPa	1454.2 ± 1.5
1264 kPa	1454.5 ± 1.5
1297 kPa	1454.5 ± 1.5
1331 kPa	1454.9 ± 1.5
1362 kPa	1454.9 ± 1.5
1400 kPa	1455.2 ± 1.5
1438 kPa	1455.5 ± 1.5
1476 kPa	1455.6 ± 1.5
1508 kPa	1455.9 ± 1.5
1543 kPa	1456 ± 1.5
1576 kPa	1456.3 ± 1.5
1621 kPa	1456.5 ± 1.5
1656 kPa	1456.8 ± 1.5
1696 kPa	1456.8 ± 1.5
1725 kPa	1457.1 ± 1.5
1760 kPa	1457.3 ± 1.5
1800 kPa	1457.5 ± 1.5
1829 kPa	1457.7 ± 1.5
1869 kPa	1457.9 ± 1.5
1899 kPa	1458.1 ± 1.5
1939 kPa	1458.4 ± 1.5
1978 kPa	1458.6 ± 1.5
2027 kPa	1458.8 ± 1.5
2062 kPa	1459.1 ± 1.5
2097 kPa	1459.2 ± 1.5
2137 kPa	1459.6 ± 1.5
2167 kPa	1459.6 ± 1.5
2214 kPa	1460 ± 1.5
2245 kPa	1460.1 ± 1.5
2282 kPa	1460.4 ± 1.5
2317 kPa	1460.6 ± 1.5
2349 kPa	1460.8 ± 1.5
2385 kPa	1460.9 ± 1.5
2431 kPa	1461.1 ± 1.5
2457 kPa	1461.1 ± 1.5
2499 kPa	1461.5 ± 1.5
2536 kPa	1461.6 ± 1.5
2578 kPa	1461.9 ± 1.5
2615 kPa	1462.1 ± 1.5
3150 kPa	1465 ± 1.5
3179 kPa	1465.2 ± 1.5
3208 kPa	1465.5 ± 1.5
3236 kPa	1465.6 ± 1.5
3261 kPa	1465.6 ± 1.5
3292 kPa	1465.8 ± 1.5
3316 kPa	1465.9 ± 1.5
3349 kPa	1466.2 ± 1.5
3370 kPa	1466.4 ± 1.5
3404 kPa	1466.4 ± 1.5
3440 kPa	1466.6 ± 1.5
3467 kPa	1466.9 ± 1.5
3502 kPa	1467 ± 1.5
3528 kPa	1467 ± 1.5
3555 kPa	1467.3 ± 1.5
3582 kPa	1467.3 ± 1.5
3606 kPa	1467.5 ± 1.5
3630 kPa	1467.6 ± 1.5
3997 kPa	1469.6 ± 1.5
4037 kPa	1469.8 ± 1.5
4059 kPa	1469.8 ± 1.5
4089 kPa	1470.1 ± 1.5
4112 kPa	1470.1 ± 1.5
4138 kPa	1470.4 ± 1.5
4161 kPa	1470.5 ± 1.5
4194 kPa	1470.6 ± 1.5
4220 kPa	1470.8 ± 1.5
4246 kPa	1470.9 ± 1.5
4268 kPa	1471.1 ± 1.5
4295 kPa	1471.2 ± 1.5
4326 kPa	1471.4 ± 1.5
4370 kPa	1471.5 ± 1.5
4397 kPa	1471.6 ± 1.5
4431 kPa	1471.8 ± 1.5
4454 kPa	1472 ± 1.5
4485 kPa	1472.1 ± 1.5
4521 kPa	1472.3 ± 1.5
4552 kPa	1472.4 ± 1.5
4587 kPa	1472.7 ± 1.5
4611 kPa	1472.8 ± 1.5
4642 kPa	1472.9 ± 1.5
4662 kPa	1473.1 ± 1.5
4691 kPa	1473.2 ± 1.5
4714 kPa	1473.3 ± 1.5
4746 kPa	1473.5 ± 1.5
4770 kPa	1473.6 ± 1.5
4833 kPa	1473.9 ± 1.5
4872 kPa	1474.1 ± 1.5
4976 kPa	1474.5 ± 1.5
5454 kPa	1477.2 ± 1.5
5490 kPa	1477.3 ± 1.5
5691 kPa	1478.2 ± 1.5
5724 kPa	1478.4 ± 1.5
5757 kPa	1478.6 ± 1.5
5782 kPa	1478.8 ± 1.5
5822 kPa	1478.8 ± 1.5
5855 kPa	1479 ± 1.5
5879 kPa	1479.1 ± 1.5
5908 kPa	1479.3 ± 1.5
5934 kPa	1479.4 ± 1.5
5968 kPa	1479.6 ± 1.5
6005 kPa	1479.8 ± 1.5
6027 kPa	1480 ± 1.5
6058 kPa	1480 ± 1.5
6101 kPa	1480.2 ± 1.5
6135 kPa	1480.5 ± 1.5
6165 kPa	1480.5 ± 1.5
6229 kPa	1480.8 ± 1.5
6973 kPa	1484.5 ± 1.5
7472 kPa	1486.7 ± 1.5
7512 kPa	1487.1 ± 1.5
7539 kPa	1487.1 ± 1.5
7568 kPa	1487.2 ± 1.5
7596 kPa	1487.1 ± 1.5
7625 kPa	1487.3 ± 1.5
7646 kPa	1487.8 ± 1.5
7680 kPa	1487.8 ± 1.5
7705 kPa	1487.9 ± 1.5
7731 kPa	1488 ± 1.5
7762 kPa	1488.1 ± 1.5
7796 kPa	1488.3 ± 1.5
7826 kPa	1488.4 ± 1.5
7851 kPa	1488.5 ± 1.5
7877 kPa	1488.7 ± 1.5
7906 kPa	1488.9 ± 1.5
7932 kPa	1488.9 ± 1.5
7965 kPa	1489 ± 1.5
7991 kPa	1489.2 ± 1.5
8025 kPa	1489.4 ± 1.5
8050 kPa	1489.5 ± 1.5
8079 kPa	1489.7 ± 1.5
8109 kPa	1489.6 ± 1.5
8138 kPa	1489.9 ± 1.5
8164 kPa	1490.1 ± 1.5
8197 kPa	1490 ± 1.5
8223 kPa	1490.2 ± 1.5
8257 kPa	1490.4 ± 1.5
8291 kPa	1490.6 ± 1.5
8322 kPa	1490.7 ± 1.5
10618 kPa	1500.7 ± 1.6
10644 kPa	1500.8 ± 1.6
10678 kPa	1500.9 ± 1.6
10708 kPa	1501.2 ± 1.6
10744 kPa	1501.3 ± 1.6
11092 kPa	1502.7 ± 1.6
11124 kPa	1502.9 ± 1.6
11146 kPa	1503 ± 1.6
11176 kPa	1503.1 ± 1.6
11211 kPa	1503.2 ± 1.6
11232 kPa	1503.2 ± 1.6
11263 kPa	1503.4 ± 1.6
11289 kPa	1503.6 ± 1.6
11324 kPa	1503.9 ± 1.6
11358 kPa	1503.9 ± 1.6
11384 kPa	1503.9 ± 1.6
11414 kPa	1504.1 ± 1.6
11455 kPa	1504.2 ± 1.6
11478 kPa	1504.3 ± 1.6
11508 kPa	1504.4 ± 1.6
11538 kPa	1504.5 ± 1.6
11565 kPa	1504.7 ± 1.6
11601 kPa	1504.8 ± 1.6
11631 kPa	1505 ± 1.6
11663 kPa	1505 ± 1.6
11698 kPa	1505.4 ± 1.6
11725 kPa	1505.4 ± 1.6
11760 kPa	1505.6 ± 1.6
11791 kPa	1505.6 ± 1.6
11822 kPa	1505.7 ± 1.6
11844 kPa	1505.9 ± 1.6
11874 kPa	1506 ± 1.6
11901 kPa	1506.1 ± 1.6
11923 kPa	1506.3 ± 1.6
11958 kPa	1506.3 ± 1.6
11993 kPa	1506.4 ± 1.6
12020 kPa	1506.5 ± 1.6
12055 kPa	1506.7 ± 1.6
12082 kPa	1506.9 ± 1.6
12816 kPa	1509.7 ± 1.6
12856 kPa	1510.1 ± 1.6
12892 kPa	1510.2 ± 1.6
12918 kPa	1510.3 ± 1.6
12955 kPa	1510.4 ± 1.6
12996 kPa	1510.6 ± 1.6
13027 kPa	1510.6 ± 1.6
13054 kPa	1510.9 ± 1.6
13090 kPa	1510.9 ± 1.6
13123 kPa	1511 ± 1.6
13165 kPa	1511.2 ± 1.6
13197 kPa	1511.2 ± 1.6
13235 kPa	1511.5 ± 1.6
13290 kPa	1511.7 ± 1.6
13323 kPa	1511.8 ± 1.6
13385 kPa	1512 ± 1.6
13417 kPa	1512.2 ± 1.6
13454 kPa	1512.2 ± 1.6
13483 kPa	1512.4 ± 1.6
